For orientation: TGI means the concentration at which net growth stops. A low value points to greater sensitivity of the cells. One may read the GI50 as the concentration giving 50% growth inhibition.

Results on 21 compounds are retold here after PubChem BioAssay (NCI).

Molecules are shown by their SMILES. Values joined by “and” are separate entries in the source; they are usually repeats but may differ in a detail not shown here. Identical values can stand only once.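 Where inhibition never reached the appropriate level, the endpoint shown equals the highest concentration tested. Otherwise, values were interpolated linearly from a five-concentration, 48-hour dose response in 96-well plates. At the GI50, growth is halved. At the TGI there is no net growth.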

Test systems include SNB-78 CNS; DLD-1 colon; HOP-18 NSCLC; DMS 273 small cell lung; M19-MEL melanoma; XF 498 CNS; KM20L2 colon; MDA-N.
Common to all, as to test: DTP human tumour cell line panel, 48 h

Take `Cn1c(=O)c2ccc(-c3ccc(Br)cc3)nc2n(C)c1=O`: the TGI with SNB-78 CNS, in the assay on DLD-1 colon, in the assay with HOP-18 NSCLC, in the assay on DMS 273 small cell lung, with M19-MEL melanoma and with XF 498 CNS was above 100 µM each time.
For the compound `Cc1cc(=O)n2c3c(c4c(cc13)c(CO)cc(=O)n4C)OC2`, the TGI in the assay on KM20L2 colon is above 100 µM; in the assay with SNB-78 CNS it was above 100 µM; in the assay with DLD-1 colon it was above 100 µM; in the assay with HOP-18 NSCLC, 62.6 µM; with DMS 273 small cell lung it was above 100 µM; in the assay with M19-MEL melanoma, 46.4 µM. The compound further yielded a TGI in the assay with XF 498 CNS of 32.4 µM.
With `O=C(N/C(=C\c1ccc(/C=C(\NC(=O)c2ccccc2)c2nc3cc(Cl)ccc3[nH]2)cc1)c1nc2cc(Cl)ccc2[nH]1)c1ccccc1`, the TGI was 55.5 µM with KM20L2 colon; above 100 µM with SNB-78 CNS; above 100 µM in the assay on DLD-1 colon; above 100 µM in the assay on HOP-18 NSCLC; 50.4 µM with DMS 273 small cell lung; above 100 µM in the assay with M19-MEL melanoma. Further, the concentration for total growth inhibition (TGI) in the assay on XF 498 CNS is above 100 µM.
Turning to `CCC(CCC(C)C1CCC2C3CC=C4CC(OC5OC(CO)C(O)C(O)C5O)CCC4(C)C3CCC12C)C(C)C` (stereo not drawn), in the assay on MDA-N, the concentration for total growth inhibition (TGI) is above 100 µM.
Turning to `CC1(c2cccc(N)c2)C2C(=O)NC(=O)C1C(=O)NC2=O` (stereo not drawn), the TGI is above 100 µM with KM20L2 colon; above 100 µM in the assay with SNB-78 CNS; above 100 µM in the assay on DLD-1 colon; 73.3 µM in the assay on DMS 273 small cell lung; above 100 µM in the assay with M19-MEL melanoma; 64.4 µM with XF 498 CNS.
As for `COc1ccc2c(Cc3c4ccccc4cc4ccccc34)cncc2c1O`, the TGI in the assay with MDA-N was determined as 4.55 µM.
Turning to `C/C(=N\NS(=O)(=O)c1ccc(C)cc1)c1cc2ccccc2n1C`, the concentration for total growth inhibition (TGI) in the assay on KM20L2 colon, in the assay with DLD-1 colon, with DMS 273 small cell lung and in the assay on M19-MEL melanoma was above 100 µM in each case.
As for `CC(=O)[CH-]C(=O)c1ccccc1.CC(=O)[CH-]C(=O)c1ccccc1.CC1(C)OCC(C2OC3OC(C)(C)OC3C2[O-])O1.CC1(C)OCC(C2OC3OC(C)(C)OC3C2[O-])O1.[Ti+4]` (stereo not drawn), the GI50 was 29.6 µM with KM20L2 colon, 18.5 µM in the assay with DLD-1 colon and 4.91 µM in the assay on M19-MEL melanoma. Besides, the TGI with KM20L2 colon is above 100 µM; with DLD-1 colon, 52.5 µM; with M19-MEL melanoma, above 100 µM.
Consider `N.N.O=P([O-])([O-])CN(CCN(CP(=O)([O-])[O-])CP(=O)([O-])[O-])CP(=O)([O-])[O-].[Pt+2]`, for which, in the assay with KM20L2 colon, the GI50 was above 100 µM and the concentration for total growth inhibition (TGI) is above 100 µM.
As for `C[C@]12CC[C@H]3[C@@H](CCC4=CC(=O)CC[C@@]43C)[C@@H]1CC[C@@H]2C(=O)COS(=O)(=O)c1ccc(Br)cc1`, the concentration for total growth inhibition (TGI) with MDA-N came out at 33.8 µM.
With `CCOC(=O)C1=C(C)N(Cc2ccccc2)C(=O)C1CC#N` (stereo not drawn), the TGI in the assay with KM20L2 colon, in the assay with SNB-78 CNS, in the assay with DLD-1 colon, with HOP-18 NSCLC, in the assay with DMS 273 small cell lung and with M19-MEL melanoma was above 100 µM throughout.
For `CSc1nc2c(nc(N)n2C2OC(COC(C)=O)C(OC(C)=O)C(OC(C)=O)C2OC(C)=O)c(=O)n1C` (stereo not drawn), the total growth inhibition concentration (TGI) with KM20L2 colon, in the assay with SNB-78 CNS, in the assay on DLD-1 colon, in the assay with HOP-18 NSCLC and in the assay on XF 498 CNS was above 100 µM in each case.
With `CC(=O)[CH-]C(=O)c1ccccc1.CC(=O)[CH-]C(=O)c1ccccc1.CC[C@H](/C=C/C(C)[C@H]1CCC2[C@@H]3CC=C4C[C@@H]([O-])CC[C@]4(C)C3CC[C@@]21C)C(C)C.CC[O-].[Ti+4]` (stereo partly drawn), the GI50 with KM20L2 colon, with DLD-1 colon, with DMS 273 small cell lung and in the assay on M19-MEL melanoma was above 100 µM in each case. Moreover, the TGI with KM20L2 colon, with DLD-1 colon, in the assay on DMS 273 small cell lung and with M19-MEL melanoma was above 100 µM in each case.
Regarding `O=S1(=O)NC2CCC3NS(=O)(=O)NC4CCC(N1)N4S(=O)(=O)N23` (stereo not drawn), the TGI in the assay on MDA-N is above 100 µM.
Turning to `N#Cc1cc([N+](=O)[O-])ccc1NC(=O)C(F)(F)F`, the TGI in the assay with KM20L2 colon, in the assay on SNB-78 CNS, in the assay with DLD-1 colon, in the assay on HOP-18 NSCLC, with DMS 273 small cell lung and with M19-MEL melanoma was above 100 µM in each case. The compound further registered a concentration for total growth inhibition (TGI) in the assay on XF 498 CNS above 100 µM.
As for `Cc1ccc(NC(=O)CC/C(CC(=O)C(C)(C)C)=N/NC(=O)C[N+](C)(C)C)cc1C`, the total growth inhibition concentration (TGI) in the assay with KM20L2 colon, in the assay on SNB-78 CNS, in the assay with DLD-1 colon, with HOP-18 NSCLC and with M19-MEL melanoma was above 100 µM in each case.
Regarding `CCOc1ccc2c(C)cc(=O)oc2c1`, in the assay with MDA-N, the TGI is above 100 µM.
Take `Cc1cc2nc3ccc(=[N+](C)C)cc-3sc2cc1N`: the total growth inhibition concentration (TGI) in the assay with KM20L2 colon came out at 41.5 µM; in the assay on SNB-78 CNS, 54.9 µM; with MDA-N, 2.35 µM; in the assay with DLD-1 colon it was 23.5 µM; in the assay with HOP-18 NSCLC, 36.6 µM; in the assay on DMS 273 small cell lung, 12.2 µM. The compound further displayed a TGI in the assay on M19-MEL melanoma of 0.354 µM.
In turn, `CC(=O)OC12c3ccccc3-c3ccccc3C1C(C(=O)O)C2(Cl)C(=O)O` (stereo not drawn) came in with a TGI in the assay with MDA-N above 10 µM.
`C/C(=N\NC(=S)N1CCN(C2CCCCCC2)CC1)c1ccccn1`: the GI50 in the assay on KM20L2 colon was 3.83 µM; in the assay on SNB-78 CNS, 4.58 µM; in the assay on DLD-1 colon, below 0.001 µM; in the assay with HOP-18 NSCLC it was 0.422 µM; in the assay with DMS 273 small cell lung, below 0.001 µM; in the assay on M19-MEL melanoma, 0.928 µM. The TGI in the assay on KM20L2 colon is 8.96 µM and 2.07 µM; in the assay on SNB-78 CNS it was 19 µM; in the assay on DLD-1 colon, 1.96 µM; in the assay with HOP-18 NSCLC it was 7.89 µM; with DMS 273 small cell lung it was 8.26 µM and 2.19 µM; with M19-MEL melanoma, 3.37 µM.
`C=C1COC(O)(C2OCOC(C3CC(=O)NC(=O)C3)C2O)C1C` (stereo not drawn): the concentration for total growth inhibition (TGI) is 0.0281 µM and 0.0721 µM in the assay on KM20L2 colon; 0.0971 µM and 0.0358 µM in the assay on SNB-78 CNS; 0.0289 µM with MDA-N; 0.0556 µM and 0.0675 µM with DLD-1 colon; 0.035 µM and 0.0686 µM with HOP-18 NSCLC; 0.0283 µM and 0.0417 µM in the assay with DMS 273 small cell lung. Moreover, the TGI in the assay on M19-MEL melanoma was 0.00849 µM and 0.0215 µM. For the same compound, the GI50 is 0.0109 µM in the assay on DLD-1 colon and 0.0112 µM in the assay with HOP-18 NSCLC.
